Numbered stars: 1 amine (or outer) side, 2 acyl side, 3 side chain; on linkers, the order of the positions; unused ones are H or OH. Side chains are listed from the residue outwards. Peptide text beside a SMILES is read from it. * marks the point of attachment. C18 diacid = O=C(O)CCCCCCCCCCCCCCCCC(=O)*; γGlu = O=C(O)[C@H](CCC(=O)[*:2])N[*:1]; AEEA = NCCOCCOCC(=O)O
Biological target: glucagon receptor (Homo sapiens, UniProt P47871)
Experiment: cell-based

glucagon receptor, sequence (P47871 26-477): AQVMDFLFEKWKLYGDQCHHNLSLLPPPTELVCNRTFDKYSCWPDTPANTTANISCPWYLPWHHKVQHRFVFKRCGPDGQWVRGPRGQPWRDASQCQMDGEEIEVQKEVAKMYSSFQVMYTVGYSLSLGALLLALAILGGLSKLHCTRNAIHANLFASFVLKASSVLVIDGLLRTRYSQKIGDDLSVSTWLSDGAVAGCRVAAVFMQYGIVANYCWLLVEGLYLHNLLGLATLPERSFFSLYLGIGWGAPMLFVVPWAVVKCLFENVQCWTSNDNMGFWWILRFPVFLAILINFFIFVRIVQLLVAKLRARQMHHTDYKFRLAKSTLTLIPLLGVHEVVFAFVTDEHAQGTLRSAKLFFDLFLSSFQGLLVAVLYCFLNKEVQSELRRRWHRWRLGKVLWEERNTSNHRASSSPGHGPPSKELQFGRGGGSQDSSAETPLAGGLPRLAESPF

Structure (SMILES)	EC50 [pM]
CC(C)C[C@H](NC(=O)[C@H](Cc1ccc(O)cc1)NC(=O)[C@H](CCCCN)NC(=O)[C@H](CO)NC(=O)[C@H](Cc1ccc(O)cc1)NC(=O)[C@H](CC(=O)O)NC(=O)[C@H](CO)NC(=O)[C@@H](NC(=O)[C@H](Cc1ccccc1)NC(=O)[C@@H](NC(=O)CNC(=O)[C@H](CCC(N)=O)NC(=O)[C@H](CO)NC(=O)[C@@H](N)Cc1c[nH]cn1)[C@@H](C)O)[C@@H](C)O)C(=O)N[C@@H](CC(=O)O)C(=O)N[C@@H](CO)C(=O)N[C@@H](CCCCN)C(=O)N[C@@H](CCCNC(=N)N)C(=O)N[C@@H](C)C(=O)N[C@@H](CCC(N)=O)C(=O)N[C@@H](CCC(=O)O)C(=O)N[C@@H](Cc1ccccc1)C(=O)N[C@H](C(=O)N[C@@H](CCCCNC(=O)COCCOCCNC(=O)COCCOCCNC(=O)CC[C@H](NC(=O)CCCCCCCCCCCCCCCCC(=O)O)C(=O)O)C(=O)N[C@@H](Cc1c[nH]c2ccccc12)C(=O)N[C@@H](CC(C)C)C(=O)N[C@@H](CC(C)C)C(=O)N[C@@H](CC(N)=O)C(=O)N[C@H](C(N)=O)[C@@H](C)O)C(C)C [Example 35, N^ε24-([2-[2-[2-[[2-[2-[2-[[(4S)-5-hydroxy-4-[(18-hydroxy-18-oxooctadecanoyl)amino]-5-oxopentanoyl]amino]ethoxy]ethoxy]acetyl]amino]ethoxy]ethoxy]acetyl])[Lys^17,Glu^21, Lys^24, Leu^27]Glucagon peptide amide] (H-HSQGTFTSDYSKYLDSKRAQEFVK([AEEA-AEEA-γGlu-C18 diacid])WLLNT-NH2; N-terminus assumed)	16
CC(C)C[C@H](NC(=O)[C@H](Cc1ccc(O)cc1)NC(=O)[C@H](CCCCN)NC(=O)[C@H](CO)NC(=O)[C@H](Cc1ccc(O)cc1)NC(=O)[C@H](CC(=O)O)NC(=O)[C@H](CO)NC(=O)[C@@H](NC(=O)[C@H](Cc1ccccc1)NC(=O)[C@@H](NC(=O)CNC(=O)[C@H](CCC(N)=O)NC(=O)[C@H](CO)NC(=O)[C@@H](N)Cc1c[nH]cn1)[C@@H](C)O)[C@@H](C)O)C(=O)N[C@@H](CC(=O)O)C(=O)N[C@@H](CCC(=O)O)C(=O)N[C@@H](CCCCN)C(=O)N[C@@H](C)C(=O)N[C@@H](C)C(=O)N[C@@H](CCC(N)=O)C(=O)N[C@@H](CCC(=O)O)C(=O)N[C@@H](Cc1ccccc1)C(=O)N[C@H](C(=O)N[C@@H](CCCCNC(=O)COCCOCCNC(=O)COCCOCCNC(=O)CC[C@H](NC(=O)CCCCCCCCCCCCCCCCC(=O)O)C(=O)O)C(=O)N[C@@H](Cc1c[nH]c2ccccc12)C(=O)N[C@@H](CC(C)C)C(=O)N[C@@H](CC(C)C)C(=O)N[C@@H](CC(N)=O)C(=O)N[C@H](C(N)=O)[C@@H](C)O)C(C)C [Example 36, N^ε24-([2-[2-[2-[[2-[2-[2-[[(4S)-5-hydroxy-4-[(18-hydroxy-18-oxooctadecanoyl)amino]-5-oxopentanoyl]amino]ethoxy]ethoxy]acetyl]amino]ethoxy]ethoxy]acetyl])[Glu^16, Lys^17, Ala^18,Glu^21, Lys^24, Leu^27]Glucagon peptide amide] (H-HSQGTFTSDYSKYLDEKAAQEFVK([AEEA-AEEA-γGlu-C18 diacid])WLLNT-NH2; N-terminus assumed)	48
CC(C)C[C@H](NC(=O)[C@H](Cc1ccc(O)cc1)NC(=O)[C@H](CCCCN)NC(=O)[C@H](CO)NC(=O)[C@H](Cc1ccc(O)cc1)NC(=O)[C@H](CC(=O)O)NC(=O)[C@H](CO)NC(=O)[C@@H](NC(=O)[C@H](Cc1ccccc1)NC(=O)[C@@H](NC(=O)CNC(=O)[C@H](CCC(N)=O)NC(=O)[C@H](CO)NC(=O)[C@@H](N)Cc1c[nH]cn1)[C@@H](C)O)[C@@H](C)O)C(=O)N[C@@H](CC(=O)O)C(=O)N[C@@H](CO)C(=O)N[C@@H](CCCCN)C(=O)N[C@@H](C)C(=O)N[C@@H](C)C(=O)N[C@@H](CCC(N)=O)C(=O)N[C@@H](CCC(=O)O)C(=O)N[C@@H](Cc1ccccc1)C(=O)N[C@H](C(=O)N[C@@H](CCCCNC(=O)COCCOCCNC(=O)COCCOCCNC(=O)CC[C@H](NC(=O)CCCCCCCCCCCCCCCCC(=O)O)C(=O)O)C(=O)N[C@@H](Cc1c[nH]c2ccccc12)C(=O)N[C@@H](CC(C)C)C(=O)N[C@@H](CC(C)C)C(=O)N[C@@H](CC(N)=O)C(=O)N[C@H](C(N)=O)[C@@H](C)O)C(C)C [Example 37, N^ε24-([2-[2-[2-[[2-[2-[2-[[(4S)-5-hydroxy-4-[(18-hydroxy-18-oxooctadecanoyl)amino]-5-oxopentanoyl]amino]ethoxy]ethoxy]acetyl]amino]ethoxy]ethoxy]acetyl])[Lys^17, Ala^18,Glu^21, Lys^24, Leu^27] Glucagon peptide amide] (H-HSQGTFTSDYSKYLDSKAAQEFVK([AEEA-AEEA-γGlu-C18 diacid])WLLNT-NH2; N-terminus assumed)	33
CC(C)C[C@H](NC(=O)[C@H](Cc1ccc(O)cc1)NC(=O)[C@H](CCCCN)NC(=O)[C@H](CO)NC(=O)[C@H](Cc1ccc(O)cc1)NC(=O)[C@H](CC(=O)O)NC(=O)[C@H](CO)NC(=O)[C@@H](NC(=O)[C@H](Cc1ccccc1)NC(=O)[C@@H](NC(=O)CNC(=O)[C@H](CCC(N)=O)NC(=O)[C@H](CO)NC(=O)[C@@H](N)Cc1c[nH]cn1)[C@@H](C)O)[C@@H](C)O)C(=O)N[C@@H](CC(=O)O)C(=O)N[C@@H](CCC(=O)O)C(=O)N[C@@H](CCCCN)C(=O)N[C@@H](CCCNC(=N)N)C(=O)N[C@@H](C)C(=O)N[C@@H](CCC(N)=O)C(=O)N[C@@H](CCC(=O)O)C(=O)N[C@@H](Cc1ccccc1)C(=O)N[C@H](C(=O)N[C@@H](CCCCNC(=O)COCCOCCNC(=O)COCCOCCNC(=O)CC[C@H](NC(=O)CCCCCCCCCCCCCCCCC(=O)O)C(=O)O)C(=O)N[C@@H](Cc1c[nH]c2ccccc12)C(=O)N[C@@H](CC(C)C)C(=O)N[C@@H](CC(C)C)C(=O)N[C@@H](CC(N)=O)C(=O)N[C@H](C(N)=O)[C@@H](C)O)C(C)C [Example 38, N^ε24-([2-[2-[2-[[2-[2-[2-[[(4S)-5-hydroxy-4-[(18-hydroxy-18-oxooctadecanoyl)amino]-5-oxopentanoyl]amino]ethoxy]ethoxy]acetyl]amino]ethoxy]ethoxy]acetyl])[Glu^16, Lys^17, Glu^21, Lys^24,Leu^27] Glucagon peptide amide] (H-HSQGTFTSDYSKYLDEKRAQEFVK([AEEA-AEEA-γGlu-C18 diacid])WLLNT-NH2; N-terminus assumed)	15
